Source: patent US6352703B1, “Compositions and methods for detecting and killing termites” (Board of Supervisors of Louisiana State University and …, priority 1997, dated 2002)

Experiments:
[1] = test system: Reticulitermes spp.; assay: Trail-following bioassay; assay type: in vivo
Protocol: (§1) C. formosanus workers were used in the initial bioassay for trail-following behavior. The trail-following bioassay was conducted on two overlapped pencil circles of radius 3 cm. The circumference of each circle passed through the center of the other circle. Each sample was streaked along one of the circles with a 4 μl-micropipette on nonabsorptive paper. A solvent (control) was streaked along the overlapping circle. After the solvent evaporated, one worker was placed in the center of overlap between the two circles. The arena was covered with a red plastic container to reduce visible light and extraneous air flow. To score the worker's activity, one point was given for each continuous 3 cm traveled by a termite over a one minute period. Three replications were performed for each fraction. A new termite was used and new circles were drawn for each trial.
(§2) Trail-following bioassays with standard 2-phenoxyethanol followed procedures that were essentially identical to those for the HPLC fraction screening bioassay described above, except that each trial was replicated 10 times; and that workers and soldiers of both C. formosanus and Reticulitermes spp. were tested. Four concentrations of 2-phenoxyethanol, 0.32, 0.032, 0.0032, 0.00032 μg/cm were used in the bioassays.

[2] = test system: C. formosanus; assay: Trail-following bioassay; assay type: in vivo, Coptotermes formosanus Shiraki
Protocol: as §1, §2

[3] = test system: Mucor spp. fungus; assay: Antifungal filter paper disk test, trial 1 (Sabouraud dextrose agar); assay type: cell-based
Protocol: Mucor was isolated from a Formosan termite nest in our laboratory, a nest originally collected from a cottonwood tree in New Orleans, La. The fungus comprised a white mat that covered large areas of the nest that had been exposed to air and water. Fungus was scraped from the nest and suspended in distilled, de-ionized water with a Pasteur pipette. This suspension was streaked on Sabouraud dextrose agar (“SDA”) (Difco Laboratories, Detroit, Mich.) in 100×15 mm plates containing 20 mL SDA. Pure cultures were obtained from individual colonies on these plates as needed. Cultures were maintained on SDA plates in a 27° C. incubator without light until used.
Filter paper disks (Whatman #1, 1.5 cm) were treated with naphthalene, butylated hydroxytoluene (BHT), dioctyl phthalate, or adipic dioctyl ester, at rates of 2 μg, 20 μg, or 200 μg, dissolved in 100 μL hexane. Controls were treated with hexane alone. For each treatment, just prior to testing for antifungal properties, 1 mL of the hexane solution and ten filter paper disks were placed in a vial, and N2 was used to evaporate the hexane.
A suspension was prepared by scraping Mucor conidia (spores) from the culture plates, and mixing into distilled, deionized water with a Pasteur pipette. A thin layer of this suspension was spread over the surface of each of 130 SDA plates by placing each plate onto an inoculation turntable (Fisher Scientific, Hampton, N.H.), pipetting 0.2 mL of the suspension into the center of the plate, spinning the turntable, and spreading the suspension onto the agar with a bent glass rod. The plates were allowed to dry for two hours. A treated filter paper disk was then placed in the center of each plate (10 plates/treatment), and the plates were incubated at 27° C. The extent to which each filter paper disk was covered by fungus was determined by visual inspection (by the method described in greater detail below) after four, five, and six days.
(§3) Fungal growth on each filter paper disk was recorded by making tracings of the disks, inking in areas with visible fungal growth. The fraction of each disk covered by fungus was measured by making photocopy enlargements of these drawings, cutting out the enlarged disks, weighing the entire circle, cutting out the inked areas of the circle (corresponding to fungal growth), and weighing the latter. The fraction of each circle covered with fungus was then calculated as the ratio of these weights. (The weight of the photocopy toner was negligible.)
(§4) Coverage of filter paper disks was analyzed by the ANOVA procedure (SAS Institute, Version 6.11, Cary, N.C.). Tukey's Studentized Range (HSD) Test was used for comparison of mean separations (α=0.05).

[4] = test system: Mucor spp. fungus; assay: Antifungal filter paper disk test, trial 2 (cornmeal agar, sealed plates); assay type: cell-based
Protocol: A second trial was conducted with filter papers treated with naphthalene, BHT, or 2,6-di-t-butyl-4-methyl-phenol (“DBP”). A fungal suspension was prepared as in the first trial. Spore concentrations were determined with a counting chamber (Petroff-Hauser, Hauser Scientific Partnership, Horsham, Pa.). Concentrations were adjusted to approximately 10^7 spores/mL. In the first trial fungus grew on SDA quickly, forming a thick mat that soon filled the entire petri dish. Therefore, in the second trial cornmeal agar (CMA, Difco Laboratories, Detroit, Mich.) was used to slow the growth of the fungus during the six-day observation period. A thin layer of the spore suspension was spread over the surface of each of 24 cornmeal agar plates using a turntable and bent glass rod, as previously described.
(§5) Filter paper disks were treated with naphthalene, BHT, or DBP at rates of 2 μg, 20 μg, or 200 μg, prepared as in the first trial. On each plate were placed four filter paper disks spaced equidistant from one another (one disk containing each of the three application rates of one of the test compounds, and one disk containing only the hexane control). Each plate was then covered and sealed with parafilm to reduce the release of volatile compounds. The concentration of naphthalene in the headspace was 0.04 μg/cm^3; except in trial 3 below, in which the concentration was 34.6 μg/cm^3, about 700 times the concentration we have observed in termite nest materials. The growth of fungus on and around each filter paper disk was recorded three, four, and five days after treatment. The experiment was then repeated, increasing the rates of naphthalene, BHT, and DBP to 200 μg, 600 μg, and 1000 μg (trial 3).
as §3, §4

[5] = test system: Mucor spp. fungus; assay: Antifungal filter paper disk test, trial 3 (cornmeal agar, sealed plates, increased rates); assay type: cell-based
Protocol: A second trial was conducted with filter papers treated with naphthalene, BHT, or 2,6-di-t-butyl-4-methyl-phenol (“DBP”). A fungal suspension was prepared as in the first trial. Spore concentrations were determined with a counting chamber (Petroff-Hauser, Hauser Scientific Partnership, Horsham, Pa.). Concentrations were adjusted to approximately 10^7 spores/mL. In the first trial fungus grew on SDA quickly, forming a thick mat that soon filled the entire petri dish. […] A thin layer of the spore suspension was spread over the surface of each of 24 cornmeal agar plates using a turntable and bent glass rod, as previously described.
as §5, with “The growth of fungus on and around each filter paper disk was recorded three, four, and five days after treatment.” left out
as §3, §4

[6] = trial 2, 0 μg disk (hexane only) on the same sealed plate as the compound's treated disks
[7] = trial 3, 0 μg disk (hexane only) on the same sealed plate as the compound's treated disks

Structure (SMILES): OCCOc1ccccc1 [2-phenoxyethanol]
- Trail-following behavior ([1]; 0.00032 μg/cm): Limited trail-following activity
- Trail-following behavior ([1]; Reticulitermes spp. workers and soldiers, 0.32, 0.032 and 0.0032 μg/cm): elicited trail-following behaviors
- Trail-following behavior ([2]; 0.00032 μg/cm): Limited trail-following activity
- Trail-following behavior ([2]; C. formosanus workers and soldiers, 0.32, 0.032 and 0.0032 μg/cm): elicited trail-following behaviors

Structure (SMILES): CCCCCCCCOC(=O)CCCCC(=O)OCCCCCCCC [Adipic dioctyl ester, adipic dioctyl ester]
- Fraction Covered, Day 4 (mean percentage of filter paper disk surface covered by fungus) ([3]; trial 1, rate 2 μg per disk): 44%
- Fraction Covered, Day 5 (mean percentage of filter paper disk surface covered by fungus) ([3]; trial 1, rate 2 μg per disk): 83%
- Fraction covered, Day 6 (mean percentage of filter paper disk surface covered by fungus) ([3]; trial 1, rate 2 μg per disk): 94%
- Fraction Covered, Day 4 (mean percentage of filter paper disk surface covered by fungus) ([3]; trial 1, rate 20 μg per disk): 20%
- Fraction Covered, Day 5 (mean percentage of filter paper disk surface covered by fungus) ([3]; trial 1, rate 20 μg per disk): 80%
- Fraction covered, Day 6 (mean percentage of filter paper disk surface covered by fungus) ([3]; trial 1, rate 20 μg per disk): 62%
- Fraction Covered, Day 4 (mean percentage of filter paper disk surface covered by fungus) ([3]; trial 1, rate 200 μg per disk): 20%
- Fraction Covered, Day 5 (mean percentage of filter paper disk surface covered by fungus) ([3]; trial 1, rate 200 μg per disk): 75%
- Fraction covered, Day 6 (mean percentage of filter paper disk surface covered by fungus) ([3]; trial 1, rate 200 μg per disk): 91%

Structure (SMILES): Cc1cc(C(C)(C)C)c(O)c(C(C)(C)C)c1 [DBP, 2,6-di-t-butyl-4-methyl-phenol]
- Fraction Covered, Day 3 (mean percentage of filter paper disk surface covered by fungus) [4, 6]: 96%
- Fraction Covered, Day 4 (mean percentage of filter paper disk surface covered by fungus) [4, 6]: 100%
- Fraction Covered, Day 5 (mean percentage of filter paper disk surface covered by fungus) [4, 6]: 100%
- Fraction Covered, Day 3 (mean percentage of filter paper disk surface covered by fungus) ([4]; trial 2, rate 2 μg per disk): 98%
- Fraction Covered, Day 4 (mean percentage of filter paper disk surface covered by fungus) ([4]; trial 2, rate 2 μg per disk): 99%
- Fraction Covered, Day 5 (mean percentage of filter paper disk surface covered by fungus) ([4]; trial 2, rate 2 μg per disk): 99%
- Fraction Covered, Day 3 (mean percentage of filter paper disk surface covered by fungus) ([4]; trial 2, rate 20 μg per disk): 92%
- Fraction Covered, Day 4 (mean percentage of filter paper disk surface covered by fungus) ([4]; trial 2, rate 20 μg per disk): 95%
- Fraction Covered, Day 5 (mean percentage of filter paper disk surface covered by fungus) ([4]; trial 2, rate 20 μg per disk): 98%
- Fraction Covered, Day 3 (mean percentage of filter paper disk surface covered by fungus) ([4]; trial 2, rate 200 μg per disk): 81%
- Fraction Covered, Day 4 (mean percentage of filter paper disk surface covered by fungus) ([4]; trial 2, rate 200 μg per disk): 91%
- Fraction Covered, Day 5 (mean percentage of filter paper disk surface covered by fungus) ([4]; trial 2, rate 200 μg per disk): 99%
- Fraction Covered, Day 3 (mean percentage of filter paper disk surface covered by fungus) [5, 7]: 40%
- Fraction Covered, Day 4 (mean percentage of filter paper disk surface covered by fungus) [5, 7]: 100%
- Fraction Covered, Day 5 (mean percentage of filter paper disk surface covered by fungus) [5, 7]: 100%
- Fungal coverage of treated disks ([5]; trial 3, fourth day): ~100%
- Fraction Covered, Day 3 (mean percentage of filter paper disk surface covered by fungus) ([5]; trial 3, rate 200 μg per disk): 0%
- Fraction Covered, Day 4 (mean percentage of filter paper disk surface covered by fungus) ([5]; trial 3, rate 200 μg per disk): 94%
- Fraction Covered, Day 5 (mean percentage of filter paper disk surface covered by fungus) ([5]; trial 3, rate 200 μg per disk): 93%
- Fraction Covered, Day 3 (mean percentage of filter paper disk surface covered by fungus) ([5]; trial 3, rate 600 μg per disk): 1%
- Fraction Covered, Day 4 (mean percentage of filter paper disk surface covered by fungus) ([5]; trial 3, rate 600 μg per disk): 100%
- Fraction Covered, Day 5 (mean percentage of filter paper disk surface covered by fungus) ([5]; trial 3, rate 600 μg per disk): 100%
- Fraction Covered, Day 3 (mean percentage of filter paper disk surface covered by fungus) ([5]; trial 3, rate 1000 μg per disk): 0%
- Fraction Covered, Day 4 (mean percentage of filter paper disk surface covered by fungus) ([5]; trial 3, rate 1000 μg per disk): 91%
- Fraction Covered, Day 5 (mean percentage of filter paper disk surface covered by fungus) ([5]; trial 3, rate 1000 μg per disk): 97%

Structure (SMILES): CCCCCCCCOC(=O)c1ccccc1C(=O)OCCCCCCCC [Dioctyl phthalate, dioctyl phthalate]
- Fraction Covered, Day 4 (mean percentage of filter paper disk surface covered by fungus) ([3]; trial 1, rate 2 μg per disk): 67%
- Fraction Covered, Day 5 (mean percentage of filter paper disk surface covered by fungus) ([3]; trial 1, rate 2 μg per disk): 78%
- Fraction covered, Day 6 (mean percentage of filter paper disk surface covered by fungus) ([3]; trial 1, rate 2 μg per disk): 89%
- Fraction Covered, Day 4 (mean percentage of filter paper disk surface covered by fungus) ([3]; trial 1, rate 20 μg per disk): 32%
- Fraction Covered, Day 5 (mean percentage of filter paper disk surface covered by fungus) ([3]; trial 1, rate 20 μg per disk): 49%
- Fraction covered, Day 6 (mean percentage of filter paper disk surface covered by fungus) ([3]; trial 1, rate 20 μg per disk): 88%
- Fraction Covered, Day 4 (mean percentage of filter paper disk surface covered by fungus) ([3]; trial 1, rate 200 μg per disk): 57%
- Fraction Covered, Day 5 (mean percentage of filter paper disk surface covered by fungus) ([3]; trial 1, rate 200 μg per disk): 69%
- Fraction covered, Day 6 (mean percentage of filter paper disk surface covered by fungus) ([3]; trial 1, rate 200 μg per disk): 82%
